Results published in patent publication US20030229105A1, “Treatment of autoimmune disorders” (Cyclacel Limited, priority 2002, published 2003).
Entries after “also recorded” stand apart in the source; their conditions may differ.

Columns and labels:
[1] = test system: HIV-1 LTR (Tat transactivation); experiment: HIV-1 LTR-CAT reporter, Tat-activated transcription in CEM cells; format: cell-based; settings: LTR-CAT plus pcTat (CMV-driven Tat)
Text: Activated transcription by Tat was also examined in CEM cells using the LTR-CAT reporter and pcTat (CMV-driven Tat). […] .
FIG. 3 discloses inhibition of HIV-1 basal and activated transcription by cdk inhibitors. […] The graphs at the bottom of the figure represent the effect of various concentrations of general cell cycle inhibitors (hydroxyurea and nocodazole) on CEM cells. (B) Inhibition of activated transcription in CEM cells was examined using transfected HIV-1 LTR-CAT, together with pcTat plasmid. (C) Experiment similar experiment to that in panel B, except that pcTat plasmid was replaced with E. coli-expressed and purified Tat protein
Lymphocyte CEM (12D7) cells were grown to mid-log phase and were processed for protein electroporation according to a previously published procedure (24). Only one modification was introduced, in which the cells were electroporated at 230 V and plated in 10 ml of complete RPMI 1640 medium for 18 h prior to harvest and chloramphenicol acetyl transferase (CAT) assay. […] Cells were freeze-thawed three times with intermittent vortexing and then incubated for 3 min at 68° C., followed by centrifugation. Supernatants were transferred to 1.5-ml Eppendorf tubes and centrifuged, and the supernatants were used for the determination of protein concentration. CAT assays were performed with 2 μg of protein according to the method of Gorman et al. (15).

HIV-1 = experiment: p24 antigen ELISA of supernatants from induced HIV-1 latently infected cells (ACH2, 8E5, U1); format: cell-based; settings: for inhibition of HIV-1 replication (p24 in medium): ACH2, 8E5, U1 cells induced with TNF-α (10 ng/ml, 2 h), 10 μM drug, 5 days; for p24 antigen release, time course: ACH2 cells, days 2, 4, 6
Experimental: We chose HIV-1 stably integrated cells, lymphocytic ACH2 and 8E5 cell lines, as well as monocytic U1 cells (and their uninfected parental counterparts CEM and U937, respectively) for our initial studies, since viral transcription could be activated and scored through signals, such as Tat, TNF-α or phorbol myristate acetate (PMA) and PHA. We first activated viruses in these cells with TNF-α (10 ng/ml) at 37° C. for 2 h, followed by washing, and then we incubated cells with 10 μM concentrations of each drug. […] We next examined the effect of all three drugs on primary HIV-1 field isolates of SI and NSI strains. Activated PBMC were infected with two independent HIV-1 viral strains of SI (UG/92/029, subtype A envelope) and NSI (THA/92/001, subtype E envelope).
Five days later, the supernatants were collected, and the amount of newly synthesized HIV-1 was measured by p24 antigen assay. (B) Purified Tat (300 μg) was electroporated into ACH2, 8E5, and U1 cells and subsequently treated with various drugs for 5 days. […] Seven days later samples were collected and used for p19 gag ELISA. (E) PHA-activated PBMC (5×10^6) were infected with HIV-1 either SI (UG/92/029 Uganda strain, subtype A envelope) or NSI (THA/92/001, Thailand strain, subtype E envelope) strains. Unadsorbed viruses were washed after 6 h, and cells were cultured in fresh media with various cdk inhibitors (10 μM). Samples were collected every sixth day and used for p24 gag ELISA assay.
At days 2, 4, and 6, the supernatants were collected, and the released HIV-1 particles were measured by using a p24 antigen ELISA assay. (B) Twenty micrograms of total RNA was separated on an RNA-formaldehyde-agarose gel, transferred, and probed with full-length labeled HIV-1 genome RNA. The hybridized genomic RNA, singly spliced (structural), and doubly spliced (regulatory) RNAs were exposed and counted by using Molecular Dynamic PhosphorImager software.
Supernatants from the infected PBMC were collected and used directly for the p24 antigen assay. The p24 gag antigen level was analyzed by using the HIVAG-1 Monoclonal Antibody Kit (Abbott Laboratories, Diagnostics Division). The HTLV-1 p19 core antigen ELISA kit was from Retro-Tek (Cellular Products).

[2] = test system: uninfected T and monocytic cells; experiment: Initial test of cdk inhibitors on uninfected cells (data not shown)
[3] = test system: ACH2 cells (latently HIV-1 infected); experiment: Cell cycle analysis (PI staining, FACS) of HIV-1-infected ACH2 cells; format: cell-based; settings: 10 μM; for apoptosis in HIV-1-infected cells: ACH2 plus TNF-α, 48 h (FIG. 2B)
Text: We next examined the cellular effects of these drugs on the cell cycle progression of HIV-1-infected and uninfected cells. […]. […] Therefore, the selective killing mechanism by this particular drug might partially be responsible for the decrease in HIV-1 titers observed in the infected cells. We also reasoned that Purvalanol A may be toxic to uninfected induced cells by increasing the G2/M population and the increase of apoptosis, as is evident in FIG. 2A. […] U937 is the uninfected monocytic parental cell line, and U1 is the U937 cell line infected with two copies of integrated HIV-1, only one of which is wild type for viral progeny formation. […]. This is in contrast to many apoptosis-inducing agents, such as TNF-α DNA-damaging agents (gamma irradiation, mitomycin C [6]), or sodium butyrate, in which cases the apoptosis of HIV-1-infected cell accompanies massive production and the release of infectious HIV-1 virions.
Forty-eight hours later, cells were collected, fixed with 70% ethanol, PI stained, and analyzed by FACS. (B and C) Experiments similar to the experiment in panel A were performed in ACH2 (B) or U1 (C) cells (both latently HIV-1 infected) plus TNF-α, followed by ethanol fixation, PI staining, and analysis by FACS. Apoptosis (Apop) represents a mixture of cells from either G1, S, or G2/M with characteristics of cell death.
For fluorescence-activated cell sorting (FACS) analysis, cells were stained with a cocktail of propidium iodide (PI) buffer (PBS with Ca^2+ and Mg^2+, RNase A [10 μg/ml], NP-40 [0.1%], and PI [50 μg/ml]) followed by cell-sorting analysis. FACS data acquired were analyzed by ModFit LT software (Verity Software House, Inc.).

| Molecule | inhibition of Tat transactivation (CAT activity) [1] | inhibition of HIV-1 replication (p24 in medium) (HIV-1) | inhibition of HIV-1 replication (p24), Tat-treated cells (HIV-1; ACH2, 8E5, U1 electroporated with purified Tat, drugs for 5 days) | p24 antigen release, time course (HIV-1; 1 μM) | p24 antigen release, time course (HIV-1; 10 μM) | toxicity in uninfected cells [2] | apoptosis ([3]; ACH2 cells, TNF-α, 48 h) | apoptosis in HIV-1-infected cells [3] |
| --- | --- | --- | --- | --- | --- | --- | --- | --- |
| Roscovitine | impaired; also recorded: inhibited activated transcription better than the other two analogs | most effective | best inhibited | no obvious decrease of p24 was apparent | only low levels of viral p24 antigens were detected | lack of toxicity | 30.21% | increased apoptosis |
| CC(C)[C@H](CO)Nc1nc(Nc2cccc(Cl)c2)c2ncn(C(C)C)c2n1 [Purvalanol A] | impaired | most effective |  |  |  | lack of toxicity |  | increased apoptosis |
